Test results reported in patent publication US20090054512A1, “USE OF ORGANIC COMPOUNDS” (priority 2006, published 2009).

Tested on: patients with type 2 diabetes
Experiment: Randomized, double-blind, two-period crossover clinical study of 100 mg vildagliptin once daily in the morning or the evening
Assay type: in vivo, human

## N#C[C@@H]1CCCN1C(=O)CNC12CC3CC(CC(O)(C3)C1)C2 [vildagliptin, (S)-1-[(3-hydroxy-1-adamantyl)amino]acetyl-2-cyano-pyrrolidine]
Administered before or with the evening meal, especially patients with baseline HbA1c>8.0%
  overnight HGP (hepatic glucose production) reduction: unexpected additional benefit on the overnight HGP reduction
At least 100 mg before or with the morning meal, or before or with the lunch, type 2 diabetes, especially baseline HbA1c>8.0%
  overnight hepatic glucose production: can be reduced
